Data from ChEMBL document CHEMBL1201862, “PubChem BioAssay data set” (2004).
The source made the active and inactive calls.

Assays:
[1] = target: Luciferin 4-monooxygenase (Photinus pyralis, UniProt P08659); test: Counter Screen for Luciferase-based Assay Positives. [Related pubchem assays: 620, 618, 411 ]
HEK293 [2] = test: NOD1 signaling inhibitors, primary screen, cell-based, luminescence, uHTS (AID 1578); format: functional; conditions: Homo sapiens
BJ [3] = test: cytotoxicity toward BJ-TERT fibroblasts, dose response, cell-based, RAS-independent, luminescence (AID 1933); format: functional; conditions: Homo sapiens
HT-1080 = test: cytotoxicity in HT1080 fibrosarcoma cells, cell-based, fluorescence readout (AID 620); format: functional; conditions: Homo sapiens
HEK293 [4] = test: cells; format: functional, cell-based; conditions: Homo sapiens
[5] = cytotoxicity toward DRD oncogenic fibroblasts, dose response, cell-based, non-viral oncogenic, luminescence (AID 1934); format: functional; conditions: Homo sapiens
BJ [6] = test: cells; format: functional, cell-based; conditions: Homo sapiens
[7] = inhibitors of firefly luciferase expression or activity, dose response, H4 neuroglioma cells, luminescence (AID 1990); format: functional, cell-based
HEK293 [8] = test: cells; format: functional, cell-based; conditions: Homo sapiens; remark: listed apart in the source
[9] = Luminescence-based dose response cell-based high throughput screening assay for cytotoxic compounds using the IEC-6 intestinal epithelial cell line. [Related pubchem assays: 1858 (Summary AID.), 1825 (Counterscreen.), 1907 (Confirmation screen.)]; format: functional
BJ [10] = test: cytotoxicity toward BJ-TERT-LT-ST fibroblasts, dose response, cell-based, RAS-independent, luminescence (AID 1935); format: functional; conditions: Homo sapiens;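 also: BJ fibroblasts immortalized with TERT plus LT and ST oncogenes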
HEK293 [11] = test: NOD2 signaling inhibitors in MDP-stimulated cells, cell-based, uHTS, luminescence (AID 2001); format: functional; conditions: Homo sapiens
Leucine aminopeptidase = target: T1, Leucine aminopeptidase (Plasmodium falciparum 3D7, UniProt Q8IL11); test: P. falciparum M17LAP inhibitors, primary screen, biochemical, fluorogenic H-Leu-NHMec substrate, 1536-well (AID 1619); format: functional
T1 sequence (Q8IL11 whole entry): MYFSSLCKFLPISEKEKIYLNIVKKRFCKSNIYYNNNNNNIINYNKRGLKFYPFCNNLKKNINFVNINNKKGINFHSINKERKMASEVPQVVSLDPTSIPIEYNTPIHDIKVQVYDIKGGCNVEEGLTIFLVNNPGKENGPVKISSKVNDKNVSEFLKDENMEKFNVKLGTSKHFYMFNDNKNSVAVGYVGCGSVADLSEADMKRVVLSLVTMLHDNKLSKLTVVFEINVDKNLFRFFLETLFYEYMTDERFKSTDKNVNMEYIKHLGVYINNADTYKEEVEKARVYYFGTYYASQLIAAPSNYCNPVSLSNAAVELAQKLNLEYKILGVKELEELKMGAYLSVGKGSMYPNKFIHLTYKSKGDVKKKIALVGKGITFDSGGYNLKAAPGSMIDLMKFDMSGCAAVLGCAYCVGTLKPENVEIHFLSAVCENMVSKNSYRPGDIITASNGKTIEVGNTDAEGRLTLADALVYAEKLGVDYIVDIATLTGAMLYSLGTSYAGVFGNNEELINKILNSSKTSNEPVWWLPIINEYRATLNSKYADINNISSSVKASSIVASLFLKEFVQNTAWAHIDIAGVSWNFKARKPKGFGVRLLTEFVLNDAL

Procathepsin L = Procathepsin L (Homo sapiens, UniProt P07711); test: cathepsin L inhibitors, dose response, counter-screen for M1/M17 aminopeptidase inhibitor project, biochemical, QFRET, 1536-well (AID 2214)
Aspartyl aminopeptidase = Aspartyl aminopeptidase (Plasmodium falciparum 3D7, UniProt Q8I2J3); test: Counterscreen for inhibitors of M1 and M17 aminopeptidases: QFRET-based biochemical high throughput dose response assay for inhibitors of the Plasmodium falciparum M18 Aspartyl Aminopeptidase (PFM18AAP). [Related PubChem assays: 1619 (Screening assay (M17LAP inhibitors).), 1445 (Screening assay (M1AAP inhibitors).)]
[12] = target: Eukaryotic translation initiation factor 4E (Mus musculus, UniProt P63073); test: eIF4E–eIF4G protein interaction inhibitors, dose response, biochemical, TR-FRET (AID 855); format: functional;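 also: potency for disrupting eIF4E binding to eIF4GI seen as loss of FRET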
[13] = target: DNA dC->dU-editing enzyme APOBEC-3G (Homo sapiens, UniProt Q9HC16); test: Dose Response confirmation of small molecule APOBEC3G DNA Deaminase Inhibitors via a fluorescence-based single-stranded DNA deaminase assay. [Related pubchem assays (depositor defined):AID493012, AID493028]; format: functional
[14] = target: T2, Lysine-specific demethylase 4C (Homo sapiens, UniProt Q9H3R0); test: GASC-1 (JMJD2C) histone demethylase inhibitors, dose response, biochemical, DELFIA europium, cherry-picked samples (AID 488835); format: functional
T2 sequence (Q9H3R0 whole entry): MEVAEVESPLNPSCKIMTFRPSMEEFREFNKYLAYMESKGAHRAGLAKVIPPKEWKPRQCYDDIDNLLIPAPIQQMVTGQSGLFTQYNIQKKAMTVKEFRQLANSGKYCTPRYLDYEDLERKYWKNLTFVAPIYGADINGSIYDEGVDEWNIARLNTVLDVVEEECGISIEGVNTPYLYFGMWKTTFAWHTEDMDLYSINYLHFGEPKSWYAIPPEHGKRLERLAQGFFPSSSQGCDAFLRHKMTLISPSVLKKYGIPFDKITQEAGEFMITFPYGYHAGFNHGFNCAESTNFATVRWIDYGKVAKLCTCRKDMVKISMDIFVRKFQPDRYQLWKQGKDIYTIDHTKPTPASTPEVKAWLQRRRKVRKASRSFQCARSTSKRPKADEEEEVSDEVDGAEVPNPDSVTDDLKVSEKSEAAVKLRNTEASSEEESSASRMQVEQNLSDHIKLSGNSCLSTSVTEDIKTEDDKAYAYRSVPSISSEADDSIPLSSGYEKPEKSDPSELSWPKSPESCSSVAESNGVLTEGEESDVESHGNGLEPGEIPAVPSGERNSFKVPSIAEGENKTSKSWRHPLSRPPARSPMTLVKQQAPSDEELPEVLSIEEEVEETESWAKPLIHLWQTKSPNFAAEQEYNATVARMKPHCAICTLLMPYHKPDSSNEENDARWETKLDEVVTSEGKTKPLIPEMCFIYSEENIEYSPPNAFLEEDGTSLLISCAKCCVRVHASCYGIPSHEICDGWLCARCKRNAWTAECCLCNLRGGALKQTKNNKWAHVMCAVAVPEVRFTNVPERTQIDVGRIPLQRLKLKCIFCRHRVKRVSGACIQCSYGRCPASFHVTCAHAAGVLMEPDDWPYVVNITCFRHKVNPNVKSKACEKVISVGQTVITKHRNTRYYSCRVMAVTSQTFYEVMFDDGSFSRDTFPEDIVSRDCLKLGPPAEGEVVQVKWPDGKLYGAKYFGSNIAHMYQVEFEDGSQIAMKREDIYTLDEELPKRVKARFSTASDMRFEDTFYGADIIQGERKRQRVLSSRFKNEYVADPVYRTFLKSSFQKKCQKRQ

[15] = target: T3, Mannose-6-phosphate isomerase (Homo sapiens, UniProt P34949); test: human PMI inhibitors, high substrate, primary screen, biochemical, fluorescence intensity, high mannose 6-phosphate (AID 1220)
T3 sequence (P34949 whole entry): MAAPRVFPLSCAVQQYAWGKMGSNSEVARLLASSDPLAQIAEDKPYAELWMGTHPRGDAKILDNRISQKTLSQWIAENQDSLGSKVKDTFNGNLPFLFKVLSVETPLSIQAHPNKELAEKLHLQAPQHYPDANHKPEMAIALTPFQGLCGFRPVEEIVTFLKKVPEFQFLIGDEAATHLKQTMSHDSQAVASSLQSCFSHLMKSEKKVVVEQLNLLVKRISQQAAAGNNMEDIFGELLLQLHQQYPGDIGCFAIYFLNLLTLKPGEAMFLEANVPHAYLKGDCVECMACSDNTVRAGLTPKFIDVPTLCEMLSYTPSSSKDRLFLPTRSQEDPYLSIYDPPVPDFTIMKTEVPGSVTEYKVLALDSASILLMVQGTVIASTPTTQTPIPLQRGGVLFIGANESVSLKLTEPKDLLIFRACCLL

[16] = target: T3, Mannose-6-phosphate isomerase; test: inhibitors of human PMI, primary screen, biochemical, fluorescence intensity, coupled assay (AID 1209)

Chain of DNA dC->dU-editing enzyme APOBEC-3G (Q9HC16 whole entry): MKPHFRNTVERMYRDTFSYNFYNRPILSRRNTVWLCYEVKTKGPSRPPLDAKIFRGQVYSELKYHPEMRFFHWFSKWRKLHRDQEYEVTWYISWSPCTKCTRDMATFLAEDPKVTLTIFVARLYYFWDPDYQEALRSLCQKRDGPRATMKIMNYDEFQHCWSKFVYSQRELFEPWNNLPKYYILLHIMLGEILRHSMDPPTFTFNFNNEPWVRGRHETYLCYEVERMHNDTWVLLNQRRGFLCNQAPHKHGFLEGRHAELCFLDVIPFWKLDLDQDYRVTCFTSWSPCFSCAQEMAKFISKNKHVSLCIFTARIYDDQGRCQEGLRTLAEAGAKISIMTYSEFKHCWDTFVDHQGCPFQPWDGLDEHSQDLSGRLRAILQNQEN
Chain of Luciferin 4-monooxygenase (P08659 whole entry): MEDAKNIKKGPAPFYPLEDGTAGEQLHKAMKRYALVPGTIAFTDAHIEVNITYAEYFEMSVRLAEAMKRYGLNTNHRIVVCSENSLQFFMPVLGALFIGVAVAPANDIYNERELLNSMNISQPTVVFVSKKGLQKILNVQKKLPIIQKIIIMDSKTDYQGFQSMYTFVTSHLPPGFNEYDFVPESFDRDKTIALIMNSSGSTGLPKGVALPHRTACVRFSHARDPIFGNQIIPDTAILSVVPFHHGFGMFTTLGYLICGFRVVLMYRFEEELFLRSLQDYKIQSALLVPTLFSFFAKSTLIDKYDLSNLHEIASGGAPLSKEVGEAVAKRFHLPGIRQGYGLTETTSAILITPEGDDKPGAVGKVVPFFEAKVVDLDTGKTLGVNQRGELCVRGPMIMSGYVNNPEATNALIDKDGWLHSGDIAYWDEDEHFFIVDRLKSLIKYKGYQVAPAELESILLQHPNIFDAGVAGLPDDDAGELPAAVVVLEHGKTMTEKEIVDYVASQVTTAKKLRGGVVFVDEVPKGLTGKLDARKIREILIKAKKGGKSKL
Chain of Eukaryotic translation initiation factor 4E (P63073 whole entry): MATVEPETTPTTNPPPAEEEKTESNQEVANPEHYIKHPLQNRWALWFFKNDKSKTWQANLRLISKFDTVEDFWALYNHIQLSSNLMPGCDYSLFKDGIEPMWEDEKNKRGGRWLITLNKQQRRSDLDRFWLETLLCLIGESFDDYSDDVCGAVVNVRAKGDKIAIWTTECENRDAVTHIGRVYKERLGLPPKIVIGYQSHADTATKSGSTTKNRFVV
Chain of Procathepsin L (P07711 whole entry): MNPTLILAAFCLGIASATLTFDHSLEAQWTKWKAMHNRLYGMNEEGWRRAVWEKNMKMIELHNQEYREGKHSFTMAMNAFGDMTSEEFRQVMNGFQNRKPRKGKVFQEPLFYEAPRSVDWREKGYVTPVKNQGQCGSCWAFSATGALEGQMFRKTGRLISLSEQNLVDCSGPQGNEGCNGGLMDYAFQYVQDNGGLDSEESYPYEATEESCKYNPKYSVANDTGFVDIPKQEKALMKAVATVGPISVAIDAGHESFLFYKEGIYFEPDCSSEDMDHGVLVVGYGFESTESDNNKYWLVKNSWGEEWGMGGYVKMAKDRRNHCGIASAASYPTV
Chain of Aspartyl aminopeptidase (Q8I2J3 whole entry): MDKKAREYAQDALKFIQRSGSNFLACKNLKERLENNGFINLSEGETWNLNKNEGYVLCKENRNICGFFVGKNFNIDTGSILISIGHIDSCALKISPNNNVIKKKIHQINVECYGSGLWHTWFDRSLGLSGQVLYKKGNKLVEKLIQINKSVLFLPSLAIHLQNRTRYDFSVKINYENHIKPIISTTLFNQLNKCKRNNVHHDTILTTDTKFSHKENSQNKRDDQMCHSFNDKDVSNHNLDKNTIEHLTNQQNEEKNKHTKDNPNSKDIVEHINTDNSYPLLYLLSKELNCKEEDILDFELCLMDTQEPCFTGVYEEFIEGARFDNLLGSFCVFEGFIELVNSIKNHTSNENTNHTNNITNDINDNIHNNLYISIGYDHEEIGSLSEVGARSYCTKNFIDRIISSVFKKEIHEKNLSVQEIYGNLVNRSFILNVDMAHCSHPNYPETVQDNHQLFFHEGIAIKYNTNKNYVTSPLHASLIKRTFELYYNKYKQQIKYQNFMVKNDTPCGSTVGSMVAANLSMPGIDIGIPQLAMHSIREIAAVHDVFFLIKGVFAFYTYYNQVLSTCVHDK

For `COc1cccc(Cn2c(NCc3cccnc3)nc3c2c(=O)n(C)c(=O)n3C)c1`, the EC50 [1] was 39.5 µM (active), the EC50 (HEK293 [2]) was > 20 µM (inactive) and the EC50 (BJ [3]) was > 150 µM (not active). The EC50 (HT-1080) was > 50 µM (not active), the IC50 (HEK293 [4]) was > 20 µM (inactive) and the EC50 [5] was 5.5 µM (active). For the same compound, the EC50 (BJ [6]) was 4.58 µM (inconclusive), the EC50 [7] was 12 µM (active) and the IC50 (HEK293 [8]) was > 20 µM (inactive). The IC50 [9] was 0.425 µM (active), the EC50 (BJ [10]) was > 150 µM (inconclusive) and the IC50 (HEK293 [11]) was 14.6 µM (inactive).
In the case of `COc1cc(NC(=O)CSc2nc3ccccc3cc2C)c(C(=O)O)cc1OC`, the IC50 (Leucine aminopeptidase) is reported as 1.57 µM (active), the IC50 (Procathepsin L) is reported as > 59.6 µM (not active) and the IC50 (Aspartyl aminopeptidase) is reported as > 73.5 µM (not active).
In the case of `COc1ccc(/N=c2\ssnc2Cl)cc1`, the IC50 [12] is reported as 43.2 µM (inactive), the IC50 [13] is reported as 9.96 µM (active) and the AC50 [14] is reported as 39.1 µM (active). The IC50 [15] was 21.6 µM (active) and the IC50 [16] was 14.4 µM (active).
